Measured values as given in patent US20240415858A1, “PROMOTING MYELINATION BY N-ACETYLGLUCOSAMINE AND MODULATION OF N-GLYCAN BRANCHING” (THE REGENTS OF THE UNIVERSITY OF CALIFORNIA, priority 2021, published 2024).

Columns and labels:
[1] = test system: mouse neural stem cells (NSC) derived from the medial ganglionic eminence of E12.5 mouse embryos; assay: Oligodendrogenesis from mouse neural stem cells in vitro (flow cytometry, immunofluorescence); format: cell-based
Source text: Mice were bred and utilized as approved by the University of California, Irvine Institutional Animal Care and Use Committee. Dorsal forebrain cortical tissue was dissected from the medial ganglionic eminence (MGE) at embryonic day 12.5 (E12) of CD1 mice (Charles River) or Mgat5−/− C57BL/6 mice and their wildtype littermates and placed in dissection buffer comprising PBS, 0.6% glucose, and 50 U/mL Pen/Strep. Tissue from multiple embryos within the same litter were pooled, and a subsequent culture from a single litter was considered a biological repeat. The tissue was dissociated using 0.05% Trypsin-EDTA at 37° C. for 10 min, followed by treatment with soybean trypsin inhibitor (Life Technologies). Dissociated cells were re-suspended in proliferation medium comprising DMEM, 1× B27, 1× N2, 1 mM sodium pyruvate, 2 mM L-glutamine, 1 mM N-acetylcysteine, 20 ng/mL EGF (PeproTech), 10 ng/mL bFGF (PeproTech), and 2 μg/mL heparin and seeded at 150,000 cells/mL (non-tissue culture treated plastic plates) and grown as non-adherent spheres. Cell cultures were passaged approximately every 3 days using enzyme-free NeuroCult Chemical Dissociation Kit (Mouse) (StemCell Technologies). Cultures were passaged at least once prior to experimental use. For experiments, passaged cells were cultured in proliferation media (bFGF and EGF) or differentiation media (bFGF (10 ng/ml) and PDGF-AA (10 ng/ml); Life technologies) for 48 hours with or without the presence of GIcNAc (Ultimate Glucosamine, Wellesley Therapeutics) or kifunensine (GlycoSyn). Neurospheres were dispersed using the enzyme-free NeuroCult kit before being analyzed by flow cytometry using one or more of the following antibodies: anti-CD140a/PDGF-RA PE conjugate (1:200, A15785, Molecular Probes), anti-04 Alexa Fluor 488 conjugated (1:200, FAB1326G, RnD systems), Anti-GaIC Alexa Fluor 647 1:200, MAB342-AF647, Millipore), Anti-Olig2 (1:200, AB9610, Millipore) with anti-rabbit Alexa Fluor 488 (1:200, thermofisher).
For neural stem cell (NSC) immunofluorescence, whole neurospheres were seeded onto laminin-coated coverslips (Neuvitro) in proliferation medium. After 24 hours, proliferation media was removed and replaced with differentiation medium (same components as proliferation medium but excluding EGF, bFGF, and heparin) to induce differentiation. For analysis of mouse brains, brains were incubated in 30% sucrose for at least 72 hours, embedded in OCT (Tissue-tek), frozen for at least 48 hours at −80° C., and then cut at 40 microns on a cryostat. Multiple sections from −1 bregma to −2.5 bregma were then stained with antibodies for MBP (1:100; MAB386, Millipore), Olig2 (1:200; AB9610, Millipore), CC1 (1:100; OP90, Millipore), degraded MBP (1:200, AB5864, Millipore) and Amyloid Precursor Protein (APP, 1:200; clone 22C11). After overnight incubation with primary antibody, tissues were washed and incubated with secondary antibodies: goat anti-rat Alexa-fluor 488 (1:200, Thermofisher), goat anti-rabbit TxRd (1:200, Thermofisher). APP is a marker for neuro-axonal damage while co-staining for CC1 and Olig2 are markers of mature oligodendrocytes. In order to examine the amount of myelin, slices were incubated in Fluoromyelin (1:300; F34651, Thermofisher) for 45 minutes. Images were acquired on a Keyence fluorescence microscope. Mean fluorescence intensity of the medial corpus callosum was measured using ImageJ.
Oligodendrogenesis were examined in vitro using mouse neural stem cells (NSC) derived from the medial ganglionic eminence of E12.5 mouse embryos, where OPC's first appear. […] Consistent with increased PDGFRα surface expression, GIcNAc also promoted pre-oligodendrocyte differentiation as evidenced by augmented expression of Oligodendrocyte Transcription Factor (OLIG2) and increased numbers of 04 and GaIC positive cells (FIGS. 1A, 1B and 1C, FIGS. 5B and 5C). […]

MS patients = assay: Phase 1 trial: four-week confirmed improvement in disability (EDSS); format: in vivo, human; settings: unblinded
Protocol: Four-week confirmed improvement in disability (EDSS) was also evaluated in the 6 g and 12 g cohorts. […] Baseline EDSS scores were compared with scores after 4 weeks of oral GIcNAc that were confirmed 4 weeks later at the last study visit.

[2] = NSCs, 48 hrs, growth media lacking exogenous differentiation cytokines

In the case of `CC(=O)N[C@H]1C(O)O[C@H](CO)[C@@H](O)[C@@H]1O` (stereo partly drawn) [GIcNAc, N-acetylglucosamine], the “NSC differentiation to O4+ pre-oligodendrocytes” value ([1]; GIcNAc combined with PDGF-AA (differentiation media)) is reported as “enhanced”, the “initiating oligodendrogenesis, compared with PDGF-AA differentiation media” value ([1]; GIcNAc in growth media vs differentiation media with exogenous PDGF-AA) is reported as “more potent than differentiation media containing exogenous PDGF-AA” and the “pre-oligodendrocyte differentiation (OLIG2 expression, numbers of O4 and GalC positive cells)” value ([1]; NSCs, 48 hrs, growth media) is reported as “promoted”. The “N-glycan branching (L-PHA flow cytometry)” value [1, 2] was “significantly increased”, the PDGFRα surface expression [1, 2] was “significantly increased” and the “development of pre-oligodendrocytes (PDGFRα O4+), double staining” value ([1]; NSCs, growth media) was “promoted development”. For the same compound, the “number of OPC's (PDGFRα+O4−)” value ([1]; NSCs, growth media) was “no change”, the “subjects with 4-week confirmed improvement in clinical disability (EDSS)” value (MS patients; 6 g/day, 4 of 18 subjects) was 22% and the “subjects with 4-week confirmed improvement in clinical disability (EDSS)” value (MS patients; 12 g/day, 5 of 16 subjects) was 31%.
